The text below walks through data of patent publication US20260297060A1, “COMPOUNDS FOR THE DEGRADATION OF MUTANT BRAF” (C4 THERAPEUTICS, INC., priority 2023, published 2026).

Test [1] concerns A375 human melanoma xenografts. In words: Example 9 efficacy study Part I in A375 human melanoma xenografts (tumor volume, T/C, TGI). Format: in vivo, BALB/c nude mice. The conditions noted are these: 10 mg/kg, p.o., BID × 14 days; for Tumor Size on PG-D14: Mean ± SEM; for TGI (Tumor Growth Inhibition): PG-D14; for T/C: PG-D14, treated/control average tumor volume. How it is done:
For efficacy study Part I, agents were tested in the A375 human melanoma xenografts. Compound 218 and Compound 157 were administered to BALB/c nude mice bearing A375 xenografts from day 0 and dosed twice a day (BID) for 14 days. Compound 218 and Compound 157 were dosed at 10 mg/kg via p.o.. Dabrafenib was administered from day 1 daily (QD) for 14 days and dosed at 100 mg/kg via p.o..
The A375 tumor cells were maintained in vitro in DMEM medium supplemented with […] and 1% Penicillin-Streptomycin at 37° C. in an atmosphere of 5% CO2 in air. The tumor cells were routinely subcultured twice weekly. The cells growing in an exponential growth phase were harvested and counted for tumor inoculation.
Each mouse was inoculated subcutaneously at the right flank with A375 cells (5×10^6) in 0.2 mL of PBS supplemented with Matrigel (PBS: Matrigel=1:1) for tumor development. Animals were grouped for the treatment when the average tumor volume reached 243 mm^3 for efficacy study part I and 413 mm^3 for the PK and PD study part I on day 15, and 271 mm^3 for efficacy part II and 443 mm^3 for the PK and PD part II on day 18, and 463 mm^3 for the PK and PD study part III on day 21. The test articles administration and the animal numbers in each group are shown in the above experimental tables.
Prior to the onset of drug treatment, mice were measured for tumor size in two dimensions using a caliper, and the tumor volume (mm^3) was calculated using formula V=0.5 a×b^2 where a and b are the long and short diameters of the tumor in mm, respectively. Mice were randomized into different treatment groups based on the tumor volume.
The major endpoint was to see if the tumor growth could be delayed or mice could be cured. The tumor size was then used for calculations of T/C value. The T/C value (in percent) is an indication of antitumor effectiveness; T and C are the mean volumes of the treated and control groups, respectively on specified day.
TGI was calculated for each group using the formula: TGI (%)=[1−(Ti−T0)/(Ci−C0)]×100; Ti is the average tumor volume of a treatment group on a given day, To is the average tumor volume of the treatment group on the day of treatment start, Ci is the average tumor volume of the vehicle control group on the same day with Ti, and C0 is the average tumor volume of the vehicle group on the day of treatment start.
A general note: Xenograft models place foreign cells or tissue in a host animal.

In test [2] the test system is luciferase-tagged A375 human melanoma CNS tumor. In words: Survival of mice in CNS tumor study (BRAF intracranial model) (Example 12). Format: in vivo, human A375 CNS xenograft in mice. The conditions noted are these: versus encorafenib. How it is done: FIG. 48 is the survival curve for the mice after administration of vehicle, encorafenib, Compound 26, Compound 141 in CNS tumor study. The x-axis is time measured in days and the y-axis is probability of survival. The experiment was conducted as described in Example 12.
FIG. 85 is an extended survival curve for the BRAF intracranial model experiment after administration of vehicle, encorafenib, Compound 26, and Compound 141 in the CNS tumor study. The x-axis is time measured in days and the y-axis is probability of survival. The experiment was conducted as described in Example 12.

As a reminder, the T/C is the ratio of treated to control. Regarding `CCN(C)S(=O)(=O)Nc1ccc(F)c(Oc2ccc3ncc(OC4CC5(CCN(C6CCC(c7cc8c(cc7F)c(N7CCC(=O)NC7=O)nn8C)CC6)CC5)C4)nc3c2)c1C#N` (single isomer, unassigned) [Compound 218, 7-[2-cyano-3-[[ethyl(methyl)sulfamoyl]amino]-6-fluoro-phenoxy]-2-[[7-[4-[3-(2,4-dioxohexahydropyrimidin-1-yl)-5-fluoro-1-methyl-indazol-6-yl]cyclohexyl]-7-azaspiro[3.5]nonan-2-yl]oxy]quinoxaline], the “Tumor Volume Trace Over Time” value turned out to be 243 ± 5 mm^3 in test [1] (Day 0, Mean ± SEM); 240 ± 21 mm^3 in test [1] (Day 3, Mean ± SEM); 114 ± 9 mm^3 in test [1] (Day 7, Mean ± SEM); 80 ± 9 mm^3 in test [1] (Day 10, Mean ± SEM); 60 ± 8 mm^3 in test [1] (Day 14, Mean ± SEM). The “Tumor Size on PG-D14” value in test [1] was found to be 60 ± 8 mm^3. The “TGI (Tumor Growth Inhibition)” value in test [1] was 116.68%. In test [1], this molecule registered a T/C of 4.47%.
`CCN(C)S(=O)(=O)Nc1ccc(F)c(Oc2ccc3ncn([C@H]4COC5(CCN(C6CC7(C6)CN(c6cc8c(cc6F)c(N6CCC(=O)NC6=O)nn8C)C7)CC5)C4)c(=O)c3c2)c1C#N` [Compound 26, (3R)-3-[6-[2-cyano-3-[[ethyl(methyl)sulfamoyl]amino]-6-fluoro-phenoxy]-4-oxo-quinazolin-3-yl]-8-[2-[3-(2,4-dioxohexahydropyrimidin-1-yl)-5-fluoro-1-methyl-indazol-6-yl]-2-azaspiro[3.3]heptan-6-yl]-1-oxa-8-azaspiro[4.5]decane]: the “survival of CNS tumor-bearing mice compared with encorafenib” value in test [2] is reported as “lived significantly longer”.
Take `CCN(C)S(=O)(=O)Nc1ccc(F)c(Oc2ccc3ncn(C4CC5(CCN(C6CC7(C6)CN(c6cc8c(cc6F)c(N6CCC(=O)NC6=O)nn8C)C7)CC5)C4)c(=O)c3c2)c1C#N` (stereo not drawn) [Compound 141, 6-[2-cyano-3-[[ethyl(methyl)sulfamoyl]amino]-6-fluoro-phenoxy]-3-[7-[2-[3-(2,4-dioxohexahydropyrimidin-1-yl)-5-fluoro-1-methyl-indazol-6-yl]-2-azaspiro[3.3]heptan-6-yl]-7-azaspiro[3.5]nonan-2-yl]-4-oxo-quinazoline]: the “survival of CNS tumor-bearing mice compared with encorafenib” value in test [2] is recorded as “lived significantly longer”.
In the case of `CO[C@H]1CCN(S(=O)(=O)Nc2ccc(F)c(Oc3ccc4ncn([C@H]5COC6(CCN(C7CC8(C7)CN(c7cc9c(cc7F)c(N7CCC(=O)NC7=O)nn9C)C8)CC6)C5)c(=O)c4c3)c2C#N)C1` [Compound 157, (3S)-N-[2-cyano-3-[3-[(3R)-8-[2-[3-(2,4-dioxohexahydropyrimidin-1-yl)-5-fluoro-1-methyl-indazol-6-yl]-2-azaspiro[3.3]heptan-6-yl]-1-oxa-8-azaspiro[4.5]decan-3-yl]-4-oxo-quinazolin-6-yl]oxy-4-fluoro-phenyl]-3-methoxy-pyrrolidine-1-sulfonamide], the “Tumor Volume Trace Over Time” value in test [1] (Day 0, Mean ± SEM) is recorded as 243 ± 4 mm^3; in test [1] (Day 3, Mean ± SEM), 272 ± 12 mm^3; in test [1] (Day 7, Mean ± SEM), 191 ± 17 mm^3; in test [1] (Day 10, Mean ± SEM), 166 ± 15 mm^3; in test [1] (Day 14, Mean ± SEM), 183 ± 37 mm^3. Also, the “Tumor Size on PG-D14” value in test [1] is recorded as 183 ± 37 mm^3. Moreover, the “TGI (Tumor Growth Inhibition)” value in test [1] came to 105.48%. This molecule also came in with a T/C in test [1] of 13.68%.
